Experimental data from patent publication US11858925B2, “GAS41 inhibitors and methods of use thereof” (The Regents of the University of Michigan, priority 2020, dated 2024).
Read-outs that look alike come from different tables or passages of the source.

Experiments:
[1] = target: T1, His6-tagged full-length GAS41 (Homo sapiens, UniProt O95619); assay: AlphaScreen competition assay with full-length GAS41 and biotin-H3K23crK27cr; assay type: binding
T1 construct: using His6-tagged full-length GAS41 and biotinylated-, di-crotonylated-H3 peptide
T1 sequence (O95619 whole entry): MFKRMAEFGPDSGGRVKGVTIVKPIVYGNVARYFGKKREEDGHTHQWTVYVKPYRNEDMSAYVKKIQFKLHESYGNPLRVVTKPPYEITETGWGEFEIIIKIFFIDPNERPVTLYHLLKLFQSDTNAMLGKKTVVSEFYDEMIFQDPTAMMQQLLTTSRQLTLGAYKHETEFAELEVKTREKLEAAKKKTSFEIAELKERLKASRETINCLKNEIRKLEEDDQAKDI
Description: An AlphaScreen competition assay was also developed using His6-tagged full-length GAS41 and biotinylated-, di-crotonylated-H3 peptide (biotin-H3K23crK27cr). For full-length protein competition experiments, 100 nM MOCR-his6-Gas41 protein was incubated with 100× competitor in 50 mM HEPES pH 7.5, 100 mM NaCl, 1 mM TCEP, 0.05% BSA, 0.01% Tween-20 for 1 hour at 1% DMSO in a 96-well ½-Area AlphaPlate. H3K23crK27cr-biotin was added to a final concentration of 25 nM and incubated for 1 hour. Nickel Chelate Acceptor AlphaScreen beads were added to a final concentration of 10 μg/mL and incubated for 1 hour. Streptavidin Donor AlphaScreen beads were added to a final concentration of 10 μg/mL and incubated for 2 hours. Alpha signal was measured on a Pherastar plate reader.

[2] = target: T2, GAS41-WT interaction with H3.3 (Homo sapiens, UniProt O95619); assay: NanoBiT assay, LgBiT-GAS41-WT and SmBiT-H3.3 in HEK293T cells; assay type: cell-based; details: 24 h treatment, 293T cells, estimated, read-out: IC50, inhibition of the luminescence signal
T2 construct: expressed in transfected cells; host or cells: HEK293T
T2 sequence (O95619 whole entry): as above
Description: A NanoBiT assay (Promega Corporation, Madison, WI) was developed to detect inhibition of protein-protein interaction in HEK293T cells by compounds. GAS41-WT and GAS41-W93A mutant were cloned into pBiT1.1-C[TK/LgBiT] vector. SmBiT-H3.3 was purchased from Promega. HEK293T cells (4×10E5) were plated into 6-well plates (DMEM with 10% FBS) and incubated for 5 h. The LgBiT-GAS41 and SmBiT-H3.3 plasmids were co-transfected using FuGENE HD for 42 h. 5×10^4 cells were transferred into 96-well white plates (DMEM with 10% FBS and 1% Penicillin and Streptomycin) and treated with compounds for 24 h. After the Nano-Glo Live Cell Reagent was added to each well, the luminescence was measured immediately using PHERAstar FS instrument.
Introduction of a point mutation W93A in LgBit GAS41 abolishing histone recognition (Hsu 2018) largely diminished luminescence signal and validates the NanoBit assay.

H1299 cells = assay: Growth inhibition of H1299 cells; assay type: cell-based; details: for GI50: Homo sapiens
Description: (§1) To investigate cellular activity of GAS41 inhibitors, H1299 cells were treated with monomeric Compound 88 and dimeric Compound 221 for 4 days. […] To determine whether growth inhibition is dependent on presence of GAS41 we developed A549 GAS41 knocked-out cells using the CRISPR/CAS9 system. We found GAS41-KO were viable but grew more slowly compare with parental A549 cells and had reduced growth by ˜70% at day 14 (FIG. 4B). […] Next, we evaluated the effect of Compound 221 on growth of two NSCLC cell lines H1299 and H1933 with GAS41 amplification. […] Such effect correlates closely with activity of Compound 221 in NanoBit assay (FIG. 3). To further validate on-target activity of Compound 221, we tested expression of GAS41 target genes in H1299 (Hsu 2018). […] Altogether, dimeric inhibitor Compound 221 reduces binding of GAS41 to acetylated H3.3 in cells and induces on-target growth inhibition in NSCLCs lines.

A549 cells = assay: Growth inhibition of A549 cells; assay type: cell-based; details: Homo sapiens, 12 μM concentration
Description: as §1

A549 GAS41-KO cells = assay: Growth of A549 GAS41 knocked-out cells; assay type: cell-based
Description: as §1

H1933 cells = assay: Growth inhibition of H1933 cells; assay type: cell-based; details: 336 h, day 14
Description: as §1

[3] = target: T3, 15N-labeled GAS41 YEATS domain (Homo sapiens, UniProt O95619); assay: 1H-15N HSQC NMR binding to 15N-labeled GAS41 YEATS domain; details: 60 μM 15N-labeled GAS41 YEATS; 60 μM Compound 85 or 30 μM Compound 223
T3 construct: GAS41 YEATS domain were also compared by NMR
T3 sequence (O95619 15-158 limits assumed): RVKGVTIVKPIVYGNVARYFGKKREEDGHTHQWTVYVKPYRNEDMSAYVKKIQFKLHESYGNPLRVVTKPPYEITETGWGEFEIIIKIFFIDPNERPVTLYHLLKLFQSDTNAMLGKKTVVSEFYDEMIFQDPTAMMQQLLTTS
Description: FIGS. 2A-2C show data for activities of compounds disclosed herein. A) Results of a dimerization assay to determine bivalent inhibitor-induced dimerization of GAS41 YEATS domain, as described in Example 6. B) ^1H-^15N HSQC spectrum of 60 μM ^15N-labeled GAS41 YEATS domain (black) and in presence of 60 μM Compound 85 (red). C) ^1H-^15N HSQC spectrum of 60 μM ^15N-labeled GAS41 YEATS domain in presence of 30 μM Compound 223 (red).
(§2) The signal was further decreased at highest compound concentrations, and indicates saturation of YEATS domain via independent inhibitor molecules (Hook effect).

GAS41 YEATS domain = target: T4, GAS41 YEATS domain (Homo sapiens, UniProt O95619); assay: AlphaScreen dimerization assay with his6-Gas41(13-158) and avi-Gas41-YEATS; assay type: binding; details: titration of his6-Gas41(13-158) and avi-Gas41-YEATS; Hook effect at highest concentrations
T4 construct: 500 nM his6-Gas41(13-158) and 250 nM avi-Gas41-YEATS were incubated; His-tagged and biotin-labeled Avi-tagged GAS41 YEATS domain constructs
T4 sequence (O95619 13-158 limits assumed): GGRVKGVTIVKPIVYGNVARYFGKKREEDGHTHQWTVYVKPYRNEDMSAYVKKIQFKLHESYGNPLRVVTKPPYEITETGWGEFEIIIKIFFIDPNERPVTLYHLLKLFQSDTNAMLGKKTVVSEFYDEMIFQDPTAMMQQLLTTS
T4 sequence (O95619 15-158 limits assumed): as the sequence (O95619 15-158 limits assumed) above
Description: An AlphaScreen assay based on His-tagged and biotin-labeled Avi-tagged GAS41 YEATS domain constructs was developed. For dimerization experiments, 500 nM his6-Gas41(13-158) and 250 nM avi-Gas41-YEATS were incubated in 50 mM HEPES pH 7.5, 100 mM NaCl, 1 mM TCEP, 0.05% BSA, 0.01% Tween-20 in a 96-well ½-Area AlphaPlate incubated for 30 minutes. Compounds 221 and 223 were added to a final concentration of 250 nM at 1% DMSO. Nickel Chelate Acceptor AlphaScreen beads were added to a final concentration of 10 μg/mL and incubated for 1 hour. Streptavidin Donor AlphaScreen beads were added to a final concentration of 10 μg/mL and incubated for 2 hours. For competition experiments with the dimeric complex, 500 nM his-Gas41(13-158) and 250 nM avi-Gas41-YEATS were incubated in assay buffer with 250 nM dimeric inhibitor for 30 minutes before the addition of monomeric competitor. AlphaScreen beads were added as in previous experiments. Alpha signal was measured on a Pherastar plate reader.
as §2

[4] = AlphaScreen assay, bin Less than 500 nM, read-out: GAS41 YEATS inhibitor IC50

Row | SMILES | IC50 [1, 4] [nM] | further results
1 | CC(C)(C)c1ccc(C(=O)N2CCCC2)s1 [Compound 134, (5-(tert-butyl)thiophen-2-yl)(pyrrolidin-1-yl)methanone] |  | IC50 ([1]; AlphaScreen, 100 nM MOCR-his6-Gas41, 25 nM H3K23crK27cr-biotin, read-out: IC50): 73000 nM
2 | O=C(Nc1ccc(C(=O)N2CC(c3nc4ccccc4s3)C2)s1)[C@@H]1C[C@@H](OCCCCCCCCO[C@H]2CN[C@H](C(=O)Nc3ccc(C(=O)N4CC(c5nc6ccccc6s5)C4)s3)C2)CN1 [Compound 219] | < 500 | 
3 | O=C(Nc1ccc(C(=O)N2CC(c3nc4ccccc4s3)C2)s1)[C@@H]1C[C@@H](OCCCCO[C@H]2CN[C@H](C(=O)Nc3ccc(C(=O)N4CC(c5nc6ccccc6s5)C4)s3)C2)CN1 [Compound 221] | < 500 | IC50 [2]: 6000 nM; GI50 (H1299 cells; NCI-H1299, 96 h, H1299 cells treated for 4 days): ~3000 nM; GI50 (H1299 cells; NCI-H1299, 336 h, H1299 cells, day 14): ~6000 nM; inhibition at 12 µM (A549 cells): ~40%; effect on growth (A549 GAS41-KO cells): no effect; GI50 (H1933 cells): ~6000 nM
4 | O=C(Nc1ccc(C(=O)N2CC(c3nccs3)C2)s1)[C@@H]1CCCN1 [Compound 85, (S)—N-(5-(3-(thiazol-2-yl)azetidine-1-carbonyl)thiophen-2-yl)pyrrolidine-2-carboxamide] |  | broadening of NMR signals (formation of a larger dimeric complex) [3]: not monomeric Compound 85
5 | O=C(Nc1ccc(C(=O)N2CC(c3nc4ccccc4s3)C2)s1)[C@@H]1CCCN1 [Compound 88] |  | dose dependent growth inhibition (H1299 cells; H1299 cells treated for 4 days): Only the dimer Compound 221 induces dose dependent growth inhibition
6 | CN(C(=O)C1C[C@@H](OCCCCCCO[C@H]2CN[C@H](C(=O)N(C)c3ccc(C(=O)N4CC(c5nccs5)C4)s3)C2)CN1)c1ccc(C(=O)N2CC(c3nccs3)C2)s1 (stereo partly shown) [Compound 217] | < 500 | 
7 | O=C(Nc1ccc(C(=O)N2CC(c3nc4ccccc4s3)C2)s1)[C@@H]1C[C@@H](OCCCCCCO[C@H]2CN[C@H](C(=O)Nc3ccc(C(=O)N4CC(c5nc6ccccc6s5)C4)s3)C2)CN1 [Compound 218] | < 500 | 
8 | O=C(Nc1ccc(C(=O)N2CC(c3nccs3)C2)s1)[C@@H]1C[C@@H](OCCCCCCO[C@H]2CN[C@H](C(=O)Nc3ccc(C(=O)N4CC(c5nccs5)C4)s3)C2)CN1 [Compound 223, (2S,2′S,4R,4′R)-4,4′-(hexane-1,6-diylbis(oxy))bis(N-(5-(3-(thiazol-2-yl)azetidine-1-carbonyl)thiophen-2-yl)pyrrolidine-2-carboxamide)] | < 500 | luminescence signal reflecting formation of the dimeric complex (GAS41 YEATS domain): increase of luminescence signal; broadening of NMR signals (formation of a larger dimeric complex) [3]: induces very substantial broadening of signals
9 | O=C(Nc1ccc(C(=O)N2CC(c3nccs3)C2)s1)[C@@H]1C[C@@H](OCCCCCCCCO[C@H]2CN[C@H](C(=O)Nc3ccc(C(=O)N4CC(c5nccs5)C4)s3)C2)CN1 [Compound 220] | < 500 | 

Further lines, with some results ahead:

Row | IC50 [1, 4] [nM] | SMILES | further results
10 | < 500 | O=C(Nc1ccc(C(=O)N2CC(c3ncc(-c4cccc(CNCc5cccc(-c6cnc(C7CN(C(=O)c8ccc(NC(=O)[C@@H]9CCCN9)s8)C7)s6)c5)c4)s3)C2)s1)C1CCCN1 (stereo partly shown) [Compound 211] | 
11 | < 500 | CN(Cc1cccc(-c2cnc(C3CN(C(=O)c4ccc(NC(=O)C5CCCN5)s4)C3)s2)c1)Cc1cccc(-c2cnc(C3CN(C(=O)c4ccc(NC(=O)[C@@H]5CCCN5)s4)C3)s2)c1 (stereo partly shown) [Compound 212] | 
12 | < 500 | CC(=O)NCCCCCCN(Cc1cccc(-c2cnc(C3CN(C(=O)c4ccc(NC(=O)C5CCCN5)s4)C3)s2)c1)Cc1cccc(-c2cnc(C3CN(C(=O)c4ccc(NC(=O)[C@@H]5CCCN5)s4)C3)s2)c1 (stereo partly shown) [Compound 213] | 
13 | < 500 | O=C(Nc1ccc(C(=O)N2CC(c3ncc(-c4cccc(COCc5cccc(-c6cnc(C7CN(C(=O)c8ccc(NC(=O)[C@@H]9CCCN9)s8)C7)s6)c5)c4)s3)C2)s1)C1CCCN1 (stereo partly shown) [Compound 210] | 
14 | < 500 | O=C(Nc1ccc(C(=O)N2CC(c3nccs3)C2)s1)[C@@H]1C[C@@H](OCc2ccc(CO[C@H]3CN[C@H](C(=O)Nc4ccc(C(=O)N5CC(c6nccs6)C5)s4)C3)cc2)CN1 [Compound 222] | 
